Key:
Format in all cases: biochemical
FAAH [1] = target: FAAH (Homo sapiens (Human), UniProt O00519); assay: In vitro competitive activity-based protein profiling, human proteomes (prefrontal cortex or PC3 cell membrane fractions); details: human proteome; for inhibition at 1 µM: read-out: FAAH % inh. 1 μM (human)
Summary of the method: (§1)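 Activity of MAGL and FAAH was quantified from fluorescent gel band intensities. Beforehand, inhibitors at several concentrations competed against subsequent probe labelling (FP-Rh, JW912 or HT-01) in species-matched proteomes, each step 30 min at 37° C.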

MAGL [2] = target: MAGL (Homo sapiens (Human), UniProt Q99685); assay: as above; details: human proteome; for inhibition at 1 µM: read-out: MAGL % inh. 1 μM (human)
Summary of the method: as §1

FAAH [3] = target: FAAH (Mus musculus (Mouse), UniProt O08914); assay: In vitro competitive activity-based protein profiling, mouse proteomes (brain membrane fraction or cell lysates); details: mouse proteome, read-out: FAAH % inh. 1 μM (mouse)
Summary of the method: as §1

MAGL [4] = target: MAGL (Mus musculus (Mouse), UniProt O35678); assay: as above; details: mouse proteome, read-out: MAGL % inh. 1 μM (mouse)
Summary of the method: as §1

Sequence of MAGL (Homo sapiens (Human), UniProt Q99685) (Q99685 whole entry): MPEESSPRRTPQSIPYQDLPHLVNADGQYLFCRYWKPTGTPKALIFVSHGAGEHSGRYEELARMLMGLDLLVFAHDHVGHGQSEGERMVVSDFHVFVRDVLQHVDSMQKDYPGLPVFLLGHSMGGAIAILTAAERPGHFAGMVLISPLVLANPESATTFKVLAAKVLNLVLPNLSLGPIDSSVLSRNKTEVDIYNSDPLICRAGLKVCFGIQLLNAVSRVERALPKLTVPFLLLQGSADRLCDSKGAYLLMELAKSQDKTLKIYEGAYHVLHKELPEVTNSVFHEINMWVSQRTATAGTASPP
Sequence of FAAH (Mus musculus (Mouse), UniProt O08914) (O08914 whole entry): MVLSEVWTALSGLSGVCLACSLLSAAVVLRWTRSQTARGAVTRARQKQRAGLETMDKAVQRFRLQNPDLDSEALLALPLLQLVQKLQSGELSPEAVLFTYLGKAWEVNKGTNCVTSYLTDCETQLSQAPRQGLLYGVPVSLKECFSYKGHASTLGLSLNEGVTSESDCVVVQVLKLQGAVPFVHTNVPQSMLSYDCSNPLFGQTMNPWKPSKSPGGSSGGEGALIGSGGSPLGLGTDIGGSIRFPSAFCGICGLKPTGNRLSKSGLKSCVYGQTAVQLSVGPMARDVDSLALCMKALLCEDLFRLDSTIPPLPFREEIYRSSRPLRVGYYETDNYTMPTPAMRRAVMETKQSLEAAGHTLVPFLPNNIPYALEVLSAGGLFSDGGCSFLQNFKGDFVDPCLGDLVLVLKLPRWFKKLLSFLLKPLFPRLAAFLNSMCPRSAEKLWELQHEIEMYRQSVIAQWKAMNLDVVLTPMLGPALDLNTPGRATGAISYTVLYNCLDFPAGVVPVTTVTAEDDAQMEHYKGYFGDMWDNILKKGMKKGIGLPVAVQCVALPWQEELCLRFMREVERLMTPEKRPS
Sequence of FAAH (Homo sapiens (Human), UniProt O00519) (O00519 whole entry): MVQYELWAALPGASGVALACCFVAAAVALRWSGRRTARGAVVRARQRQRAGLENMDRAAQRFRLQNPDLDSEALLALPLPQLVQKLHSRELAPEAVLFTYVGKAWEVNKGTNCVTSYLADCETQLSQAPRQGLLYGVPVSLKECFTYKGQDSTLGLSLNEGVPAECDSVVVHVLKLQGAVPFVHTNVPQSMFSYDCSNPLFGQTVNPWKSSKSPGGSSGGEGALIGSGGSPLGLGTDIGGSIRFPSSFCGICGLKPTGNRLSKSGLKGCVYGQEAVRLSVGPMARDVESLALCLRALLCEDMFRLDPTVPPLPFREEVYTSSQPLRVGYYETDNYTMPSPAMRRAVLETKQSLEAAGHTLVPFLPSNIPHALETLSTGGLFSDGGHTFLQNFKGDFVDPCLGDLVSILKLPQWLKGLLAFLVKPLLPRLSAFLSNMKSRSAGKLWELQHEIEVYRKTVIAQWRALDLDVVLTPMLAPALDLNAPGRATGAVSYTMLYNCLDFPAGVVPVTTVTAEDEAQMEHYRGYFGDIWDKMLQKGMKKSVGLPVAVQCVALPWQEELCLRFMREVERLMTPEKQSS
Sequence of MAGL (Mus musculus (Mouse), UniProt O35678) (O35678 whole entry): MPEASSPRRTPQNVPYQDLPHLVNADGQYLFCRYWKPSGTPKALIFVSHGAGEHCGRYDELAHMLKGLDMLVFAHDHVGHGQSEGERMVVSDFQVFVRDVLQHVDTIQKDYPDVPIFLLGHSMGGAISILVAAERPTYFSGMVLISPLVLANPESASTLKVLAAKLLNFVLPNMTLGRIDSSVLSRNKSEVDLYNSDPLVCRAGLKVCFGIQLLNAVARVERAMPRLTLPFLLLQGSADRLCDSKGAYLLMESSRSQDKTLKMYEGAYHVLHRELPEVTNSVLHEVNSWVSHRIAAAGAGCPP

An inhibition at 1 µM (FAAH [1]) of 0 to 25%, an inhibition at 1 µM (MAGL [2]) greater than 75% and an inhibition at 1 µM (FAAH [3]) of 0 to 25% were found for CN(Cc1ccc(C(F)(F)F)c(N2CCC(F)CC2)c1)C1(C)CCN(C(=O)n2ccc(NS(C)(=O)=O)n2)CC1 [Example 2, N-(1-(4-((3-(4-fluoropiperidin-1-yl)-4-(trifluoromethyl)benzyl)(methyl)amino)-4-methylpiperidine-1-carbonyl)-1H-pyrazol-3-yl)methanesulfonamide] in this work. It also gave an inhibition at 1 µM (MAGL [4]) greater than 75%.

An IC50 (FAAH [1]) of 0.1 to 1 µM, an IC50 (MAGL [2]) of less than 0.1 µM and an inhibition at 1 µM (FAAH [3]) greater than 75% were found for CC(=O)Nc1ccn(C(=O)N2CC3CN(Cc4cc(Cl)cc(N5CCCC5)c4)CC3C2)n1 (stereo not drawn) [Example 172, N-(1-(5-(3-Chloro-5-(pyrrolidin-1-yl)benzyl)octahydropyrrolo[3,4-c]pyrrole-2-carbonyl)-1H-pyrazol-3-yl)acetamide] in this work. The inhibition at 1 µM (MAGL [4]) was greater than 75%.

An inhibition at 1 µM (FAAH [1]) of 0 to 25%, an inhibition at 1 µM (MAGL [2]) of 25 to 50% and an inhibition at 1 µM (FAAH [3]) of 0 to 25% were found for CN(Cc1ccc(C(F)(F)F)cc1N1CCC(C(=O)O)C1)C1(C)CCN(C(=O)n2ccc(NS(C)(=O)=O)n2)CC1 (stereo not drawn) [Example 97, 1-(2-((Methyl(4-methyl-1-(3-(methylsulfonamido)-1H-pyrazole-1-carbonyl)piperidin-4-yl)amino)methyl)-5-(trifluoromethyl)phenyl)pyrrolidine-3-carboxylic acid] in this work. The inhibition at 1 µM (MAGL [4]) was 25 to 50%.

An inhibition at 1 µM (FAAH [1]) of 0 to 25%, an inhibition at 1 µM (MAGL [2]) greater than 75% and an inhibition at 1 µM (FAAH [3]) of 0 to 25% were found for CS(=O)(=O)Nc1ccn(C(=O)N2CCC3(CCN(Cc4cc(Cl)cc(N5CCCC5)c4)C3)CC2)n1 [Example 68, N-(1-(2-(3-Chloro-5-(pyrrolidin-1-yl)benzyl)-2,8-diazaspiro[4.5]decane-8-carbonyl)-1H-pyrazol-3-yl)methanesulfonamide] in this work. The inhibition at 1 µM (MAGL [4]) was greater than 75%.

An inhibition at 1 µM (FAAH [1]) of 0 to 25%, an inhibition at 1 µM (MAGL [2]) greater than 75% and an inhibition at 1 µM (FAAH [3]) of 0 to 25% were found for CC(=O)Nc1ccn(C(=O)N2CC3CN(Cc4ccc(Cl)c(C5(O)CCCC5)c4)CC3C2)n1 (stereo not drawn) [Example 24, N-(1-(5-(4-Chloro-3-(1-hydroxycyclopentyl)benzyl)octahydropyrrolo[3,4-c]pyrrole-2-carbonyl)-1H-pyrazol-3-yl)acetamide] in this work. It also gave an inhibition at 1 µM (MAGL [4]) greater than 75%.

An inhibition at 1 µM (FAAH [1]) of 25 to 50%, an inhibition at 1 µM (MAGL [2]) greater than 75% and an inhibition at 1 µM (FAAH [3]) of 25 to 50% were found for CS(=O)(=O)Nc1ccn(C(=O)N2CCN(Cc3cc4c(Cl)cccc4s3)CC2)n1 [Example 67, N-(1-(4-((4-Chlorobenzo[b]thiophen-2-yl)methyl)piperazine-1-carbonyl)-1H-pyrazol-3-yl)methanesulfonamide] in this work. For the same molecule, the inhibition at 1 µM (MAGL [4]) was greater than 75%.

An inhibition at 1 µM (FAAH [1]) of 0 to 25%, an inhibition at 1 µM (MAGL [2]) of 25 to 50% and an inhibition at 1 µM (FAAH [3]) of 0 to 25% were found for CS(=O)(=O)Nc1ccn(C(=O)N2CC3CN(Cc4ccc(Cl)c(N5CC6COCC6C5)c4)CC3C2)n1 (stereo not drawn) [Example 140, N-(1-(5-(4-chloro-3-(Tetrahydro-1H-furo[3,4-c]pyrrol-5(3H)-yl)benzyl)octahydropyrrolo[3,4-c]pyrrole-2-carbonyl)-1H-pyrazol-3-yl)methanesulfonamide] in this work. For the same molecule, the inhibition at 1 µM (MAGL [4]) was 0 to 25%.

An inhibition at 1 µM (FAAH [1]) of 0 to 25%, an inhibition at 1 µM (MAGL [2]) greater than 75% and an inhibition at 1 µM (FAAH [3]) of 0 to 25% were found for CS(=O)(=O)Nc1ccn(C(=O)N2CCC3(CCN(Cc4cc(N5CCCC5)cc(C(F)(F)F)c4)C3)CC2)n1 [Example 64, N-(1-(2-(3-(Pyrrolidin-1-yl)-5-(trifluoromethyl)benzyl)-2,8-diazaspiro[4.5]decane-8-carbonyl)-1H-pyrazol-3-yl)methanesulfonamide] in this work. The inhibition at 1 µM (MAGL [4]) was greater than 75%.

An inhibition at 1 µM (FAAH [1]) of 0 to 25%, an inhibition at 1 µM (MAGL [2]) of 25 to 50% and an inhibition at 1 µM (FAAH [3]) of 0 to 25% were found for Cc1nc(Cl)ccc1CN1CCN(C(=O)n2ccc(NS(C)(=O)=O)n2)CC1 [Example 61, N-(1-(4-((6-Chloro-2-methylpyridin-3-yl)methyl)piperazine-1-carbonyl)-1H-pyrazol-3-yl)methanesulfonamide] in this work. It also gave an inhibition at 1 µM (MAGL [4]) of 50 to 75%.

An inhibition at 1 µM (FAAH [1]) greater than 75%, an IC50 (FAAH [1]) of 0.1 to 1 µM and an inhibition at 1 µM (MAGL [2]) greater than 75% were found for CC(=O)Nc1ccn(C(=O)N2CCC3(CCN(Cc4ccc(N5CCCC5)cc4C(F)(F)F)C3)CC2)n1 [Example 23, N-(1-(2-(4-(pyrrolidin-1-yl)-2-(trifluoromethyl)benzyl)-2,8-diazaspiro[4.5]decane-8-carbonyl)-1H-pyrazol-3-yl)acetamide] in this work. For the same molecule, the IC50 (MAGL [2]) was less than 0.1 µM, the inhibition at 1 µM (FAAH [3]) was greater than 75% and the inhibition at 1 µM (MAGL [4]) was greater than 75%.

An inhibition at 1 µM (FAAH [1]) of 0 to 25%, an IC50 (FAAH [1]) of 1 to 10 µM and an inhibition at 1 µM (MAGL [2]) greater than 75% were found for CC(=O)Nc1ccn(C(=O)N2CCC3(CCCN3C(=O)c3ccc(Cl)c(C4CC4)c3)CC2)n1 [Example 20, N-(1-(1-(4-chloro-3-cyclopropylbenzoyl)-1,8-diazaspiro[4.5]decane-8-carbonyl)-1H-pyrazol-3-yl)acetamide] in this work. For the same molecule, the IC50 (MAGL [2]) was less than 0.1 µM, the inhibition at 1 µM (FAAH [3]) was greater than 75% and the inhibition at 1 µM (MAGL [4]) was greater than 75%.

An inhibition at 1 µM (FAAH [1]) of 0 to 25%, an inhibition at 10 µM (MAGL [2]; 10 μM, read-out: MAGL % inh. (human) @ 10 μM) greater than 75% and an inhibition at 1 µM (FAAH [3]) of 0 to 25% were found for C#Cc1ccc(CN2CCN(C(=O)n3ccc(NS(C)(=O)=O)n3)CC2)cc1 [Example 69, N-(1-(4-(4-Ethynylbenzyl)piperazine-1-carbonyl)-1H-pyrazol-3-yl)methanesulfonamide] in this work. For the same molecule, the inhibition at 1 µM (MAGL [4]) was 0 to 25%.

An inhibition at 1 µM (FAAH [1]) of 0 to 25%, an IC50 (FAAH [1]) of 1 to 10 µM and an inhibition at 1 µM (MAGL [2]) greater than 75% were found for CS(=O)(=O)Nc1ccn(C(=O)N2CCN(Cc3cc4ccc(C(F)(F)F)cc4s3)CC2)n1 [Example 52, N-(1-(4-((6-(Trifluoromethyl)benzo[b]thiophen-2-yl)methyl)piperazine-1-carbonyl)-1H-pyrazol-3-yl)methanesulfonamide] in this work. For the same molecule, the IC50 (MAGL [2]) was less than 0.1 µM, the inhibition at 1 µM (FAAH [3]) was 0 to 25% and the inhibition at 1 µM (MAGL [4]) was greater than 75%.

An inhibition at 1 µM (FAAH [1]) of 0 to 25%, an inhibition at 1 µM (MAGL [2]) greater than 75% and an inhibition at 1 µM (FAAH [3]) of 0 to 25% were found for CC(=O)Nc1ccn(C(=O)N2CCN(Cc3cccc(C(F)(F)F)c3)CC2)n1 [Example 127, N-(1-(4-(3-(Trifluoromethyl)benzyl)piperazine-1-carbonyl)-1H-pyrazol-3-yl)acetamide] in this work. For the same molecule, the inhibition at 1 µM (MAGL [4]) was greater than 75%.

An inhibition at 1 µM (FAAH [1]) of 0 to 25%, an inhibition at 1 µM (MAGL [2]) of 50 to 75% and an inhibition at 1 µM (FAAH [3]) of 0 to 25% were found for CS(=O)(=O)Nc1ccn(C(=O)N2CCN(Cc3ccc(C(F)(F)F)cc3NCCC(=O)O)CC2)n1 [Example 77, 3-((2-((4-(3-(Methylsulfonamido)-1H-pyrazole-1-carbonyl)piperazin-1-yl)methyl)-5-(trifluoromethyl)phenyl)amino)propanoic acid] in this work. It also gave an inhibition at 1 µM (MAGL [4]) of 0 to 25%.

An inhibition at 1 µM (FAAH [1]) of 0 to 25%, an inhibition at 1 µM (MAGL [2]) greater than 75% and an inhibition at 1 µM (FAAH [3]) of 0 to 25% were found for CS(=O)(=O)Nc1ccn(C(=O)N2CCN(Cc3sc4ccccc4c3Cl)CC2)n1 [Example 70, N-(1-(4-((3-Chlorobenzo[b]thiophen-2-yl)methyl)piperazine-1-carbonyl)-1H-pyrazol-3-yl)methanesulfonamide] in this work. For the same molecule, the inhibition at 1 µM (MAGL [4]) was greater than 75%.

An inhibition at 1 µM (FAAH [1]) of 0 to 25%, an inhibition at 1 µM (MAGL [2]) greater than 75% and an inhibition at 1 µM (FAAH [3]) of 0 to 25% were found for CN(Cc1ccc(Cl)c(N2CC3COCC3C2)c1)C1(C)CCN(C(=O)n2ccc(NS(C)(=O)=O)n2)CC1 (stereo not drawn) [Example 26, N-(1-(4-((4-Chloro-3-(tetrahydro-1H-furo[3,4-c]pyrrol-5(3H)-yl)benzyl)(methyl)amino)-4-methylpiperidine-1-carbonyl)-1H-pyrazol-3-yl)methanesulfonamide] in this work. The inhibition at 1 µM (MAGL [4]) was 0 to 25%.

An inhibition at 1 µM (FAAH [1]) of 0 to 25%, an inhibition at 1 µM (MAGL [2]) greater than 75% and an inhibition at 1 µM (FAAH [3]) of 0 to 25% were found for CS(=O)(=O)Nc1ccn(C(=O)N2CCC3(CCN(Cc4ccc(C(F)(F)F)cc4N4CCOCC4)C3)CC2)n1 [Example 62, N-(1-(2-(2-Morpholino-4-(trifluoromethyl)benzyl)-2,8-diazaspiro[4.5]decane-8-carbonyl)-1H-pyrazol-3-yl)methanesulfonamide] in this work. For the same molecule, the inhibition at 1 µM (MAGL [4]) was greater than 75%.

An inhibition at 1 µM (FAAH [1]) of 0 to 25%, an inhibition at 1 µM (MAGL [2]) greater than 75% and an inhibition at 1 µM (FAAH [3]) of 0 to 25% were found for CC(=O)Nc1ccn(C(=O)N2CCN(Cc3cccc(OC(F)(F)F)c3)CC2)n1 [Example 128, N-(1-(4-(3-(Trifluoromethoxy)benzyl)piperazine-1-carbonyl)-1H-pyrazol-3-yl)acetamide] in this work. The inhibition at 1 µM (MAGL [4]) was greater than 75%.

An inhibition at 1 µM (FAAH [1]) of 0 to 25%, an inhibition at 1 µM (MAGL [2]) greater than 75% and an inhibition at 1 µM (FAAH [3]) of 0 to 25% were found for CS(=O)(=O)Nc1ccn(C(=O)N2CCC(Oc3ccc(C(F)(F)F)cc3C(=O)N3CCCC3)CC2)n1 [Example 101, N-(1-(4-(2-(Pyrrolidine-1-carbonyl)-4-(trifluoromethyl)phenoxy)piperidine-1-carbonyl)-1H-pyrazol-3-yl)methanesulfonamide] in this work. It also gave an inhibition at 1 µM (MAGL [4]) of 50 to 75%.

An inhibition at 1 µM (FAAH [1]) greater than 75%, an IC50 (FAAH [1]) of 0.1 to 1 µM and an inhibition at 1 µM (MAGL [2]) greater than 75% were found for CC(C)(O)COc1cccc(CN2CCN(C(=O)n3ccc(NS(C)(=O)=O)n3)CC2)c1Cl [Example 34, N-(1-(4-(2-Chloro-3-(2-hydroxy-2-methylpropoxy)benzyl)piperazine-1-carbonyl)-1H-pyrazol-3-yl)methanesulfonamide] in this work. The IC50 (MAGL [2]) was less than 0.1 µM, the inhibition at 1 µM (FAAH [3]) was greater than 75% and the inhibition at 1 µM (MAGL [4]) was greater than 75%.

An inhibition at 1 µM (FAAH [1]) of 0 to 25%, an inhibition at 1 µM (MAGL [2]) greater than 75% and an inhibition at 1 µM (FAAH [3]) of 0 to 25% were found for CS(=O)(=O)Nc1ccn(C(=O)N2CCC(Oc3ccc(C(F)(F)F)c(-c4nnco4)c3)CC2)n1 [Example 5, N-(1-(4-(3-(1,3,4-Oxadiazol-2-yl)-4-(trifluoromethyl)phenoxy)piperidine-1-carbonyl)-1H-pyrazol-3-yl)methanesulfonamide] in this work. It also gave an inhibition at 1 µM (MAGL [4]) greater than 75%.
